Measurements published in ChEMBL document CHEMBL2202961, “Antiproliferative activity of salinomycin and its derivatives” (Bioorg Med Chem Lett, 2012).
In brackets after ≈: the same amount, converted by molar mass.

Columns and labels:
[1] = test system: BALB/3T3; experiment: Selectivity index, ratio of IC50 for mouse BALB/3T3 cells to IC50 doxorubicin-resistant human LoVo/DX cells
[2] = test system: LoVo; experiment: Selectivity index, ratio of IC50 for mouse BALB/3T3 cells to IC50 for human LoVo cells; type: functional
[3] = test system: BALB/3T3; experiment: Selectivity index, ratio of IC50 for mouse BALB/3T3 cells to IC50 for human vincristine-resistant human HL60/Vinc cells; type: functional
[4] = test system: BALB/3T3; experiment: Cytotoxicity against mouse BALB/3T3 cells incubated for 72 hrs by MTT assay; type: cell-based; conditions: BALB/3T3, 72 h
[5] = test system: BALB/3T3; experiment: Selectivity index, ratio of IC50 for mouse BALB/3T3 cells to IC50 for human HL60 cells; type: functional
[6] = test system: LoVo; experiment: Resistance index, ratio of IC50 for doxorubicin-resistant human LoVo/DX cells to IC50 for parental human LoVo cells; type: functional
[7] = Cytotoxicity against doxorubicin-resistant human LoVo/DX cells incubated for 72 hrs by MTT assay; type: functional, cell-based
[8] = test system: HL-60; experiment: Resistance index, ratio of IC50 for vincristine-resistant human HL60/Vinc cells to IC50 for parental human HL60 cells; type: functional
[9] = test system: LoVo; experiment: Cytotoxicity against human LoVo cells incubated for 72 hrs by MTT assay; type: functional, cell-based
[10] = Cytotoxicity against vincristine-resistant human HL60/Vinc cells incubated for 72 hrs by MTT assay; type: functional, cell-based
[11] = test system: HL-60; experiment: Cytotoxicity against human HL60 cells incubated for 72 hrs by MTT assay; conditions: HL-60, 72 h
[12] = test system: Staphylococcus aureus; experiment: Antimicrobial activity against methicillin-resistant Staphylococcus aureus; type: functional

## CC[C@@H](C(=O)[C@@H](C)[C@@H](O)[C@H](C)[C@@H]1O[C@@H]([C@@H](CC)C(=O)NCc2ccccc2)CC[C@@H]1C)[C@H]1O[C@]2(C=C[C@@H](O)[C@]3(CC[C@@](C)([C@H]4CC[C@](O)(CC)[C@H](C)O4)O3)O2)[C@H](C)C[C@@H]1C
[1]
  Ratio IC50: 2.19
[2]
  Ratio IC50: 1.81
[3]
  Ratio IC50: 1.21
[4]
  IC50: 7.26 µM
[5]
  Ratio IC50: 2
[6]
  Ratio IC50: 0.82
[7]
  IC50: 3.31 µM
[8]
  Ratio IC50: 1.66
[9]
  IC50: 4.02 µM
[10]
  IC50: 6.02 µM
[11]
  IC50: 3.63 µM

## CC[C@@H](C(=O)[C@@H](C)[C@@H](O)[C@H](C)[C@@H]1O[C@@H]([C@@H](CC)C(=O)Nc2ccc3c(c2)OCCOCCOCCOCCO3)CC[C@@H]1C)[C@H]1O[C@]2(C=C[C@@H](O)[C@]3(CC[C@@](C)([C@H]4CC[C@](O)(CC)[C@H](C)O4)O3)O2)[C@H](C)C[C@@H]1C
[1]
  Ratio IC50: 4.51
[2]
  Ratio IC50: 4.08
[3]
  Ratio IC50: 3.71
[4]
  IC50: 25.5 µM
[5]
  Ratio IC50: 8.27
[6]
  Ratio IC50: 0.91
[7]
  IC50: 5.65 µM
[8]
  Ratio IC50: 2.23
[9]
  IC50: 6.24 µM
[10]
  IC50: 6.87 µM
[11]
  IC50: 3.08 µM

## CC[C@@H](C(=O)[C@@H](C)[C@@H](O)[C@H](C)[C@@H]1O[C@@H]([C@@H](CC)C(=O)On2nnc3ccccc32)CC[C@@H]1C)[C@H]1O[C@]2(C=C[C@@H](O)[C@]3(CC[C@@](C)([C@H]4CC[C@](O)(CC)[C@H](C)O4)O3)O2)[C@H](C)C[C@@H]1C
[1]
  Ratio IC50: 4.83
[2]
  Ratio IC50: 7.76
[3]
  Ratio IC50: 6.08
[4]
  IC50: 31.9 µM
[5]
  Ratio IC50: 17.33
[6]
  Ratio IC50: 1.61
[7]
  IC50: 6.61 µM
[8]
  Ratio IC50: 2.85
[9]
  IC50: 4.11 µM
[10]
  IC50: 5.25 µM
[11]
  IC50: 1.84 µM
[12]
  MIC: 1 µg/mL (≈ 1.15 µM)

## CCCCNC(=O)[C@H](CC)[C@H]1CC[C@H](C)[C@H]([C@@H](C)[C@H](O)[C@H](C)C(=O)[C@H](CC)[C@H]2O[C@]3(C=C[C@@H](O)[C@]4(CC[C@@](C)([C@H]5CC[C@](O)(CC)[C@H](C)O5)O4)O3)[C@H](C)C[C@@H]2C)O1
[1]
  Ratio IC50: 2.56
[2]
  Ratio IC50: 2.03
[3]
  Ratio IC50: 1.55
[4]
  IC50: 8.21 µM
[5]
  Ratio IC50: 2.12
[6]
  Ratio IC50: 0.81
[7]
  IC50: 3.26 µM
[8]
  Ratio IC50: 1.37
[9]
  IC50: 4.04 µM
[10]
  IC50: 5.31 µM
[11]
  IC50: 3.88 µM

## CC[C@@H](C(=O)[C@@H](C)[C@@H](O)[C@H](C)[C@@H]1O[C@@H]([C@@H](CC)C(=O)O)CC[C@@H]1C)[C@H]1O[C@]2(C=C[C@@H](O)[C@]3(CC[C@@](C)([C@H]4CC[C@](O)(CC)[C@H](C)O4)O3)O2)[C@H](C)C[C@@H]1C [SALINOMYCIN]
[1]
  Ratio IC50: 4.51
[2]
  Ratio IC50: 25.3
[3]
  Ratio IC50: 8.16
[4]
  IC50: 28.1 µM
[5]
  Ratio IC50: 63.81
[6]
  Ratio IC50: 5.61
[7]
  IC50: 6.23 µM
[8]
  Ratio IC50: 7.82
[9]
  IC50: 1.11 µM
[10]
  IC50: 3.44 µM
[11]
  IC50: 0.44 µM

## CC[C@@H](C(=O)[C@@H](C)[C@@H](O)[C@H](C)[C@@H]1O[C@@H]([C@@H](CC)C(=O)NCCOCCOCCOC)CC[C@@H]1C)[C@H]1O[C@]2(C=C[C@@H](O)[C@]3(CC[C@@](C)([C@H]4CC[C@](O)(CC)[C@H](C)O4)O3)O2)[C@H](C)C[C@@H]1C
[1]
  Ratio IC50: 1.28
[2]
  Ratio IC50: 1.31
[3]
  Ratio IC50: 1.34
[4]
  IC50: 39.1 µM
[5]
  Ratio IC50: 1.57
[6]
  Ratio IC50: 1.03
[7]
  IC50: 30.6 µM
[8]
  Ratio IC50: 1.17
[9]
  IC50: 29.9 µM
[10]
  IC50: 29.1 µM
[11]
  IC50: 24.9 µM

## CC[C@@H](C(=O)[C@@H](C)[C@@H](O)[C@H](C)[C@@H]1O[C@@H]([C@@H](CC)C(=O)NCCCN2CCOCC2)CC[C@@H]1C)[C@H]1O[C@]2(C=C[C@@H](O)[C@]3(CC[C@@](C)([C@H]4CC[C@](O)(CC)[C@H](C)O4)O3)O2)[C@H](C)C[C@@H]1C
[1]
  Ratio IC50: 1.78
[2]
  Ratio IC50: 1.92
[3]
  Ratio IC50: 1.23
[4]
  IC50: 34.7 µM
[5]
  Ratio IC50: 6.16
[6]
  Ratio IC50: 1.08
[7]
  IC50: 19.4 µM
[8]
  Ratio IC50: 4.99
[9]
  IC50: 18 µM
[10]
  IC50: 28.1 µM
[11]
  IC50: 5.63 µM

## CC[C@@H](C(=O)[C@@H](C)[C@@H](O)[C@H](C)[C@@H]1O[C@@H]([C@@H](CC)C(=O)Nc2ccccc2)CC[C@@H]1C)[C@H]1O[C@]2(C=C[C@@H](O)[C@]3(CC[C@@](C)([C@H]4CC[C@](O)(CC)[C@H](C)O4)O3)O2)[C@H](C)C[C@@H]1C
[1]
  Ratio IC50: 2.21
[2]
  Ratio IC50: 1.72
[3]
  Ratio IC50: 1.64
[4]
  IC50: 7.08 µM
[5]
  Ratio IC50: 1.86
[6]
  Ratio IC50: 0.78
[7]
  IC50: 3.21 µM
[8]
  Ratio IC50: 1.14
[9]
  IC50: 4.11 µM
[10]
  IC50: 4.31 µM
[11]
  IC50: 3.79 µM

## COc1cccc2c1C(=O)c1c(O)c3c(c(O)c1C2=O)C[C@@](O)(C(=O)CO)C[C@@H]3O[C@H]1C[C@H](N)[C@H](O)[C@H](C)O1 [DOXORUBICIN]
[4]
  IC50: 1.91 µM
[7]
  IC50: 12.1 µM
[9]
  IC50: 0.38 µM
[10]
  IC50: 0.91 µM

## CC[C@@H](C(=O)[C@@H](C)[C@@H](O)[C@H](C)[C@@H]1O[C@@H]([C@@H](CC)C(=O)NCCc2c[nH]c3ccccc23)CC[C@@H]1C)[C@H]1O[C@]2(C=C[C@@H](O)[C@]3(CC[C@@](C)([C@H]4CC[C@](O)(CC)[C@H](C)O4)O3)O2)[C@H](C)C[C@@H]1C
[1]
  Ratio IC50: 3.59
[2]
  Ratio IC50: 2.9
[3]
  Ratio IC50: 2.31
[4]
  IC50: 9.98 µM
[5]
  Ratio IC50: 2.84
[6]
  Ratio IC50: 0.81
[7]
  IC50: 2.78 µM
[8]
  Ratio IC50: 1.22
[9]
  IC50: 3.45 µM
[10]
  IC50: 4.31 µM
[11]
  IC50: 3.52 µM
